Results on 7 compounds are retold here after US20120115877A1, “Facially Amphiphilic Compounds, Compositions, And Uses Thereof In Treating Cancer” (POLYMEDIX, INC., priority 2010, published 2012).

One may read the IC90 as the point of the concentration-response curve where the effect stands at 90%. The inhibition is the share of the control response that was lost under treatment.

≈ marks a conversion by molar mass, not a printed value. Where only a bound is given, the exact number is not on record here.

The subject of one data set is human red blood cells. In words: Lysis of human red blood cells (HC50). In kind it is cell-based.
In the next data set the test system is MCF-7 (ATCC HTB-22). In words: XTT cell viability assay, growth inhibition. In kind it is cell-based, human. The protocol:
(§1) Compound A was tested against two human breast cancer cell lines, MCF-7 (ATCC HTB-22) and TMX2-28, and one non-tumorigenic breast cell line, MCF-10A (ATCC CRL-10317). MCF-7 and TMX2-28 cells were grown in DC5 cell growth media while the MCF-10A cells were grown in MEGM, both supplemented with 5% bovine growth serum. The cells were grown using standard techniques. Cell cultures at 50% confluence were harvested with trypsin, seeded onto sterile 96 well plates at a density of 10,000 cells/well and allowed to grow overnight to 50% confluence. Compound A was then added to the growth medium and allowed to further incubate for 48 hours. Viable cells were quantitated using an XTT assay (purchased from Roche).
Background: Tetrazolium dyes change colour on reduction, which living cells bring about.

For the next data set, the system named is TMX2-28. In words: XTT cell viability assay, growth inhibition. The format is cell-based, human. The protocol: as §1
The next data set has as its system MCF-10A (ATCC CRL-10317). Kind of data set: XTT cell viability assay, growth inhibition. The format is cell-based. The conditions noted are these: Homo sapiens, MCF10A, non-tumorigenic, 48 hours incubation. The protocol:
as §1

Another data set has as its system RPMI-8226. Kind of data set: NCI-60 screen, Leukemia. The format is cell-based, human. The conditions noted are these: 10 μM. The protocol:
(§2) Several compounds were tested at single concentrations (10 μM) against 59 different human tumor cell lines, representing leukemia, melanoma and cancers of the lung, colon, brain, ovary, breast, prostate, and kidney (see, Table 3). The human tumor cell lines of the cancer screening panel were grown in RPMI 1640 medium containing 5% fetal bovine serum and 2 mM L-glutamine. For a typical screening experiment, cells were inoculated into 96 well microtiter plates in 100 μL at plating densities ranging from 5,000 to 40,000 cells/well depending on the doubling time of individual cell lines. After cell inoculation, the microtiter plates were incubated at 37° C., 5% CO2, 95% air and 100% relative humidity for 24 hours prior to addition of the compounds.
(§3) After 24 hours, two plates of each cell line were fixed in situ with TCA, to represent a measurement of the cell population for each cell line at the time of drug addition (Tz). Compounds were solubilized in dimethyl sulfoxide at 400-fold the desired final maximum test concentration and stored frozen prior to use. At the time of drug addition, an aliquot of frozen concentrate was thawed and diluted to twice the desired final maximum test concentration with complete medium containing 50 μg/ml gentamicin. Additional four, 10-fold or ½ log serial dilutions were made to provide a total of five compound concentrations plus control. Aliquots of 100 μl of these different drug dilutions were added to the appropriate microtiter wells already containing 100 μl of medium, resulting in the required final compound concentrations.
(§4) Following drug addition, the plates were incubated for an additional 48 hours at 37° C., 5% CO2, 95% air, and 100% relative humidity. For adherent cells, the assay was terminated by the addition of cold TCA. Cells were fixed in situ by the gentle addition of 50 μl of cold 50% (w/v) TCA (final concentration, 10% TCA) and incubated for 60 minutes at 4° C. The supernatant was discarded, and the plates were washed five times with tap water and air dried. Sulforhodamine B (SRB) solution (100 μl) at 0.4% (w/v) in 1% acetic acid was added to each well, and plates were incubated for 10 minutes at room temperature. After staining, unbound dye was removed by washing five times with 1% acetic acid and the plates were air dried. Bound stain was subsequently solubilized with 10 mM trizma base, and the absorbance was read on an automated plate reader at a wavelength of 515 nm. For suspension cells, the methodology was the same except that the assay was terminated by fixing settled cells at the bottom of the wells by gently adding 50 μl of 80% TCA (final concentration, 16% TCA). Using the seven absorbance measurements (time zero, (Tz), control growth, (C), and test growth in the presence of drug at the five concentration levels (Ti)), the percentage growth was calculated at each of the compound concentrations levels. Percentage growth inhibition was calculated as:
(§5) [(Ti−Tz)/(C−Tz)]×100 for concentrations for which Ti>/=Tz
(§6) [(Ti−Tz)/Tz]×100 for concentrations for which Ti<Tz.
(§7) Three dose response parameters were calculated for each compound. Growth inhibition of 50% (GI50) was calculated from [(Ti−Tz)/(C−Tz)]×100=50, which is the compound concentration resulting in a 50% reduction in the net protein increase (as measured by SRB staining) in control cells during the compound incubation. The compound concentration resulting in total growth inhibition (TGI) was calculated from Ti=Tz. The LC50 (concentration of compound resulting in a 50% reduction in the measured protein at the end of the compound treatment as compared to that at the beginning) indicating a net loss of cells following treatment was calculated from [(Ti−Tz)/Tz]×100=−50. Values were calculated for each of these three parameters if the level of activity was reached; however, if the effect was not reached or was exceeded, the value for that parameter was expressed as greater or less than the maximum or minimum concentration tested.

Another data set deals with LOX IMVI. Kind of data set: NCI-60 screen, Melanoma. In kind it is cell-based, human. The conditions noted are these: 10 μM. The protocol: as §2, §3, §4, §5, §6, §7
The test system of a further data set is MDA-MB-435. In words: NCI-60 screen, Melanoma. The format is cell-based, human. As to conditions: 10 μM. The protocol: as §2, §3, §4, §5, §6, §7
The subject of another data set is UACC-62. In words: NCI-60 screen, Melanoma. In kind it is cell-based, human. The conditions noted are these: 10 μM. The protocol: as §2, §3, §4, §5, §6, §7
The next data set relates to 786-0. Kind of data set: NCI-60 screen, Renal Cancer. In kind it is cell-based, human. As to conditions: 10 μM. The protocol:
as §2, §3, §4, §5, §6, §7

Data set [1] relates to S. typhymurium ATTC 29631.
The subject of data set [2] is 59 different human tumor cell lines. Kind of data set: NCI-60 DTP human tumor cell line screen, single concentration, mean over panel. The format is cell-based. As to conditions: single concentration 10 μM, mean over 59 human tumor cell lines; for inhibition at 10 µM: Homo sapiens, read-out: mean growth inhibition; for NCI Screen Mean % Growth: 48 hours, SRB. The protocol: as §2, §3, §4, §5, §6

The subject of the next data set is HS 578T. In words: NCI-60 screen, Breast Cancer. In kind it is cell-based, human. The conditions noted are these: 10 μM. The protocol:
as §2, §3, §4, §5, §6, §7

For the compound `NCCc1cc(Br)cc(C#Cc2cccc(C#Cc3cc(Br)cc(CCN)c3)c2)c1` [Compound A], the “50% lysis (HC50)” value in the data set with human red blood cells turned out to be 75 µg/mL. Moreover, the IC90 came out at 6.3 µg/mL (≈ 12.1 µM) with MCF-7 (ATCC HTB-22) (Homo sapiens, MCF7, MCF-7, tumorigenic, 48 hours incubation, XTT); 6.3 µg/mL (≈ 12.1 µM) with TMX2-28 (Homo sapiens, TMX2-28, tumorigenic, 48 hours incubation, XTT); 12.5 µg/mL (≈ 23.9 µM) in the data set on MCF-10A (ATCC CRL-10317). Besides, the “Selectivity IC90/IC90 MCF10A” value in the data set with MCF-7 (ATCC HTB-22) (MCF-7 versus MCF10A) and in the data set with TMX2-28 (TMX2-28 versus MCF10A) was 2 in each case. Also, the “Percent Growth” value was 9.497% in the data set on RPMI-8226; −76.91% with LOX IMVI; −16.19% in the data set with MDA-MB-435; 26.03% in the data set on UACC-62; −26.78% in the data set with 786-0. Besides, the “potent cytotoxicity against bacteria (concentration)” value (in the data set with E. coli D31; in data set [1]) was 0.8 to 1.6 µg/mL throughout.

Regarding `N=C(N)NCCCCC(=O)Nc1cc(C(F)(F)F)cc(NC(=O)Nc2ccc(NC(=O)Nc3cc(C(F)(F)F)cc(NC(=O)CCCCNC(=N)N)c3OC3CCNC3)cc2)c1OC1CCNC1` (stereo not shown) [Compound B], in data set [2], the inhibition at 10 µM is above 30%. Also, in data set [2], the “NCI Screen Mean % Growth” value worked out at 56.58%. For the same compound, the “Percent Growth” value with RPMI-8226 was 49.97%; in the data set on LOX IMVI it was 59.57%; in the data set with MDA-MB-435, 48.12%; in the data set on UACC-62 it was 75.91%; with 786-0, 58.61%.

Regarding `N=C(N)NCCCCC(=O)Nc1cc(C(F)(F)F)cc(NC(=O)c2cc(C(=O)Nc3cc(C(F)(F)F)cc(NC(=O)CCCCNC(=N)N)c3SCCN)ncn2)c1SCCN` [Compound C], the inhibition at 10 µM in data set [2] was above 30%. Further, in [2], the “NCI Screen Mean % Growth” value is recorded as 43.48%. The “Percent Growth” value is listed as 50.64% in the data set on LOX IMVI, 35.56% in the data set on MDA-MB-435 and 55.93% with UACC-62.

With `NCCCc1cccc(-c2ccc3sc4ccc(-c5cccc(CCCN)c5)cc4c3c2)c1` [Compound D], the inhibition at 10 µM in [2] was above 30%. For the same compound, in [2], the “NCI Screen Mean % Growth” value was 67.91%. Further, the “Percent Growth” value in the data set with RPMI-8226 is given as 62.06%; in the data set on LOX IMVI it was 26.77%; in the data set on MDA-MB-435 it was 81.14%; with UACC-62, 88.44%; with 786-0, 79.48%.

Take `c1cc(-c2ccc3sc4ccc(-c5ccnc(N6CCNCC6)c5)cc4c3c2)cc(N2CCNCC2)n1` [Compound E]: the results for the “Percent Growth” value in the data set on LOX IMVI, in the data set with MDA-MB-435 and in the data set with UACC-62 were −80.29%, −84.03% and −41.07%, respectively.

Turning to `NCCSc1cc(SCCN)c(C(F)(F)F)cc1NC(=O)c1cc(C(=O)Nc2cc(C(F)(F)F)c(SCCN)cc2SCCN)ncn1` [Compound F], the inhibition at 10 µM in [2] is above 30%. In [2], the “NCI Screen Mean % Growth” value worked out at 41.28%. The “Percent Growth” value in the data set on LOX IMVI is on record as 6.66%; in the data set with MDA-MB-435, 70.62%; in the data set on UACC-62, 51.23%; in the data set with 786-0 it was 50.09%.

With `NCCCc1cccc(-c2ccc3oc4ccc(-c5cccc(CCCN)c5)cc4c3c2)c1` [Compound G], the inhibition at 10 µM in data set [2] is above 30%. Further, the “NCI Screen Mean % Growth” value in [2] was found to be 49.56%. The “Percent Growth” value is recorded as 65.28% with RPMI-8226; −75.08% in the data set on LOX IMVI; 62.07% in the data set with MDA-MB-435; 72.92% with UACC-62; 5.487% in the data set with 786-0; 100.4% with HS 578T.
